From PubChem BioAssay (NCI)
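Test compounds were applied to cells in 96-well plates for 48 hours at 5 doses. GI50: concentration for 50% inhibition of growth. At the TGI there is no net growth.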

Experiments:
Experiment in all cases: NCI tumour cell line growth inhibition, 48 h
UACC-257 melanoma = system: UACC-257 melanoma
RPMI-8226 leukemia = system: RPMI-8226 leukemia
CCRF-CEM leukemia = system: CCRF-CEM leukemia
COLO 205 colon = system: COLO 205 colon
CAKI-1 renal = system: CAKI-1 renal
K-562 leukemia = system: K-562 leukemia
MDA-MB-231 breast = system: MDA-MB-231 breast
SF-268 CNS = system: SF-268 CNS
786-0 renal = system: 786-0 renal
HCC-2998 colon = system: HCC-2998 colon
M14 melanoma = system: M14 melanoma
PC-3 prostate = system: PC-3 prostate
NCI/ADR-RES ovarian = system: NCI/ADR-RES ovarian
SR leukemia = system: SR leukemia
OVCAR-8 ovarian = system: OVCAR-8 ovarian
HOP-92 NSCLC = system: HOP-92 NSCLC
HT29 colon = system: HT29 colon
EKVX NSCLC = system: EKVX NSCLC
OVCAR-5 ovarian = system: OVCAR-5 ovarian
MDA-MB-435 = system: MDA-MB-435
SK-MEL-2 melanoma = system: SK-MEL-2 melanoma
NCI-H522 lung = system: NCI-H522 lung
HCT-15 colon = system: HCT-15 colon
SK-MEL-5 melanoma = system: SK-MEL-5 melanoma
UACC-62 melanoma = system: UACC-62 melanoma
NCI-H226 lung = system: NCI-H226 lung
LOX IMVI melanoma = system: LOX IMVI melanoma
SF-295 CNS = system: SF-295 CNS
SW-620 colon = system: SW-620 colon
HS 578T breast = system: HS 578T breast
SK-MEL-28 melanoma = system: SK-MEL-28 melanoma
SN12C renal = system: SN12C renal
HCT-116 colon = system: HCT-116 colon
T-47D breast = system: T-47D breast
DU-145 prostate = system: DU-145 prostate
MOLT-4 leukemia = system: MOLT-4 leukemia
MCF7 breast = system: MCF7 breast
A549 NSCLC = system: A549 NSCLC
ACHN renal = system: ACHN renal
TK-10 renal = system: TK-10 renal
OVCAR-3 ovarian = system: OVCAR-3 ovarian
HOP-62 NSCLC = system: HOP-62 NSCLC
U251 CNS = system: U251 CNS
BT-549 breast = system: BT-549 breast
MALME-3M melanoma = system: MALME-3M melanoma
UO-31 renal = system: UO-31 renal
KM12 colon = system: KM12 colon
NCI-H460 lung = system: NCI-H460 lung
A498 renal = system: A498 renal
SF-539 CNS = system: SF-539 CNS
SNB-19 CNS = system: SNB-19 CNS
IGROV1 ovarian = system: IGROV1 ovarian
OVCAR-4 ovarian = system: OVCAR-4 ovarian

**Q.** For COc1ccc2c(c1)C(=O)c1c-2c(NCCN(C)C)nc2ccccc12, which GI50 (UACC-257 melanoma) is on record?
**A.** 4.6 µM

**Q.** What about the TGI (UACC-257 melanoma) of the same compound?
**A.** 17.5 µM

**Q.** What about the GI50 (RPMI-8226 leukemia) of the same compound?
**A.** 1.21 µM

**Q.** And the TGI (RPMI-8226 leukemia)?
**A.** 4.53 µM

**Q.** What about the GI50 (CCRF-CEM leukemia) of the same compound?
**A.** 0.561 µM

**Q.** And the TGI (CCRF-CEM leukemia)?
**A.** 11.5 µM

**Q.** And the GI50 (COLO 205 colon)?
**A.** 4.51 µM

**Q.** And the TGI (COLO 205 colon)?
**A.** 19.3 µM

**Q.** What about the GI50 (CAKI-1 renal) of the same compound?
**A.** 0.373 µM

**Q.** What about the TGI (CAKI-1 renal) of the same compound?
**A.** 2.48 µM

**Q.** And the GI50 (K-562 leukemia)?
**A.** 2.62 µM

**Q.** What about the TGI (K-562 leukemia) of the same compound?
**A.** 14.8 µM

**Q.** What about the GI50 (MDA-MB-231 breast) of the same compound?
**A.** 6.59 µM

**Q.** And the TGI (MDA-MB-231 breast)?
**A.** 19.9 µM

**Q.** What about the GI50 (SF-268 CNS) of the same compound?
**A.** 2.97 µM

**Q.** And the TGI (SF-268 CNS)?
**A.** 15.5 µM

**Q.** And the GI50 (786-0 renal)?
**A.** 2.65 µM

**Q.** And the TGI (786-0 renal)?
**A.** 9.1 µM

**Q.** And the GI50 (HCC-2998 colon)?
**A.** 2.52 µM

**Q.** And the TGI (HCC-2998 colon)?
**A.** 13.4 µM

**Q.** And the GI50 (M14 melanoma)?
**A.** 15.8 µM

**Q.** What about the TGI (M14 melanoma) of the same compound?
**A.** 29.2 µM

**Q.** What about the GI50 (PC-3 prostate) of the same compound?
**A.** 2.93 µM

**Q.** What about the TGI (PC-3 prostate) of the same compound?
**A.** 14.2 µM

**Q.** What about the GI50 (NCI/ADR-RES ovarian) of the same compound?
**A.** 3.66 µM

**Q.** What about the TGI (NCI/ADR-RES ovarian) of the same compound?
**A.** 14.3 µM

**Q.** What about the GI50 (SR leukemia) of the same compound?
**A.** 0.35 µM

**Q.** And the TGI (SR leukemia)?
**A.** 2.66 µM

**Q.** And the GI50 (OVCAR-8 ovarian)?
**A.** 0.496 µM

**Q.** And the TGI (OVCAR-8 ovarian)?
**A.** 5.53 µM

**Q.** And the GI50 (HOP-92 NSCLC)?
**A.** 0.0658 µM

**Q.** And the TGI (HOP-92 NSCLC)?
**A.** 6.54 µM

**Q.** What about the GI50 (HT29 colon) of the same compound?
**A.** 4.41 µM

**Q.** And the TGI (HT29 colon)?
**A.** 15.5 µM

**Q.** What about the GI50 (EKVX NSCLC) of the same compound?
**A.** 3.06 µM

**Q.** What about the TGI (EKVX NSCLC) of the same compound?
**A.** 16.4 µM

**Q.** What about the GI50 (OVCAR-5 ovarian) of the same compound?
**A.** 4.23 µM

**Q.** And the TGI (OVCAR-5 ovarian)?
**A.** 16 µM

**Q.** And the GI50 (MDA-MB-435)?
**A.** 5.06 µM

**Q.** And the TGI (MDA-MB-435)?
**A.** 20.4 µM

**Q.** And the GI50 (SK-MEL-2 melanoma)?
**A.** 15.7 µM

**Q.** And the TGI (SK-MEL-2 melanoma)?
**A.** 31 µM

**Q.** And the GI50 (NCI-H522 lung)?
**A.** 6.92 µM

**Q.** What about the TGI (NCI-H522 lung) of the same compound?
**A.** 20.9 µM

**Q.** And the GI50 (HCT-15 colon)?
**A.** 2.72 µM

**Q.** What about the TGI (HCT-15 colon) of the same compound?
**A.** 16.6 µM

**Q.** What about the GI50 (SK-MEL-5 melanoma) of the same compound?
**A.** 6.47 µM

**Q.** What about the TGI (SK-MEL-5 melanoma) of the same compound?
**A.** 19.7 µM

**Q.** And the GI50 (UACC-62 melanoma)?
**A.** 15.8 µM

**Q.** What about the TGI (UACC-62 melanoma) of the same compound?
**A.** 29.4 µM

**Q.** What about the GI50 (NCI-H226 lung) of the same compound?
**A.** 16.2 µM

**Q.** What about the TGI (NCI-H226 lung) of the same compound?
**A.** 32.5 µM

**Q.** And the GI50 (LOX IMVI melanoma)?
**A.** 2.01 µM

**Q.** And the TGI (LOX IMVI melanoma)?
**A.** 11.6 µM

**Q.** What about the GI50 (SF-295 CNS) of the same compound?
**A.** 3.83 µM

**Q.** What about the TGI (SF-295 CNS) of the same compound?
**A.** 17.5 µM

**Q.** What about the GI50 (SW-620 colon) of the same compound?
**A.** 3.4 µM

**Q.** And the TGI (SW-620 colon)?
**A.** 14 µM

**Q.** What about the GI50 (HS 578T breast) of the same compound?
**A.** 9.28 µM

**Q.** What about the TGI (HS 578T breast) of the same compound?
**A.** 26.8 µM

**Q.** And the GI50 (SK-MEL-28 melanoma)?
**A.** 13.9 µM

**Q.** And the TGI (SK-MEL-28 melanoma)?
**A.** 26.9 µM

**Q.** And the GI50 (SN12C renal)?
**A.** 3.74 µM

**Q.** What about the TGI (SN12C renal) of the same compound?
**A.** 16 µM

**Q.** And the GI50 (HCT-116 colon)?
**A.** 15.1 µM

**Q.** And the TGI (HCT-116 colon)?
**A.** 28.3 µM

**Q.** And the GI50 (T-47D breast)?
**A.** 14.8 µM

**Q.** And the TGI (T-47D breast)?
**A.** 34.6 µM

**Q.** What about the GI50 (DU-145 prostate) of the same compound?
**A.** 2.95 µM

**Q.** And the TGI (DU-145 prostate)?
**A.** 17.5 µM

**Q.** What about the GI50 (MOLT-4 leukemia) of the same compound?
**A.** 0.291 µM

**Q.** And the TGI (MOLT-4 leukemia)?
**A.** 1.15 µM

**Q.** What about the GI50 (MCF7 breast) of the same compound?
**A.** 2 µM

**Q.** And the TGI (MCF7 breast)?
**A.** 12.2 µM

**Q.** What about the GI50 (A549 NSCLC) of the same compound?
**A.** 0.946 µM

**Q.** What about the TGI (A549 NSCLC) of the same compound?
**A.** 4.49 µM

**Q.** What about the GI50 (ACHN renal) of the same compound?
**A.** 1.17 µM

**Q.** And the TGI (ACHN renal)?
**A.** 6.43 µM

**Q.** What about the GI50 (TK-10 renal) of the same compound?
**A.** 8.19 µM

**Q.** What about the TGI (TK-10 renal) of the same compound?
**A.** 28.8 µM

**Q.** And the GI50 (OVCAR-3 ovarian)?
**A.** 2.29 µM

**Q.** And the TGI (OVCAR-3 ovarian)?
**A.** 9.34 µM

**Q.** And the GI50 (HOP-62 NSCLC)?
**A.** 14.3 µM

**Q.** What about the TGI (HOP-62 NSCLC) of the same compound?
**A.** 27.4 µM

**Q.** And the GI50 (U251 CNS)?
**A.** 2.47 µM

**Q.** What about the TGI (U251 CNS) of the same compound?
**A.** 11.7 µM

**Q.** And the GI50 (BT-549 breast)?
**A.** 5.99 µM

**Q.** And the TGI (BT-549 breast)?
**A.** 19.3 µM

**Q.** What about the GI50 (MALME-3M melanoma) of the same compound?
**A.** 12.4 µM

**Q.** What about the TGI (MALME-3M melanoma) of the same compound?
**A.** 32.7 µM

**Q.** And the GI50 (UO-31 renal)?
**A.** 9.98 µM

**Q.** What about the TGI (UO-31 renal) of the same compound?
**A.** 22 µM

**Q.** And the GI50 (KM12 colon)?
**A.** 2.94 µM

**Q.** What about the TGI (KM12 colon) of the same compound?
**A.** 23 µM

**Q.** And the GI50 (NCI-H460 lung)?
**A.** 0.671 µM

**Q.** And the TGI (NCI-H460 lung)?
**A.** 10.6 µM

**Q.** What about the GI50 (A498 renal) of the same compound?
**A.** 11.3 µM

**Q.** What about the TGI (A498 renal) of the same compound?
**A.** 24.6 µM

**Q.** What about the GI50 (SF-539 CNS) of the same compound?
**A.** 12.4 µM

**Q.** What about the TGI (SF-539 CNS) of the same compound?
**A.** 25.2 µM

**Q.** And the GI50 (SNB-19 CNS)?
**A.** 3.28 µM

**Q.** What about the TGI (SNB-19 CNS) of the same compound?
**A.** 12.7 µM

**Q.** What about the GI50 (IGROV1 ovarian) of the same compound?
**A.** 1.86 µM

**Q.** And the TGI (IGROV1 ovarian)?
**A.** 7.14 µM

**Q.** And the GI50 (OVCAR-4 ovarian)?
**A.** 12.2 µM

**Q.** And the TGI (OVCAR-4 ovarian)?
**A.** 36.3 µM
